What was measured:
Test in all cases: biochemical
Parameters in all cases: KINOMEscan competition binding, DNA-tagged kinase against immobilised ligand, qPCR read-out
BLK = BLK (Homo sapiens, UniProt P51451); settings: read-out: Percent Control
CDK2 = CDK2 (Homo sapiens, UniProt P24941); settings: read-out: Percent Control
DAPK1 = DAPK1 (Homo sapiens, UniProt P53355); settings: read-out: Percent Control
NEK9 = NEK9 (Homo sapiens, UniProt Q8TD19); settings: read-out: Percent Control
DYRK1A = DYRK1A (Homo sapiens, UniProt Q13627); settings: read-out: Percent Control
STK10 = STK10 (Homo sapiens, UniProt O94804); settings: read-out: Percent Control
Chain of STK10 (O94804 whole entry): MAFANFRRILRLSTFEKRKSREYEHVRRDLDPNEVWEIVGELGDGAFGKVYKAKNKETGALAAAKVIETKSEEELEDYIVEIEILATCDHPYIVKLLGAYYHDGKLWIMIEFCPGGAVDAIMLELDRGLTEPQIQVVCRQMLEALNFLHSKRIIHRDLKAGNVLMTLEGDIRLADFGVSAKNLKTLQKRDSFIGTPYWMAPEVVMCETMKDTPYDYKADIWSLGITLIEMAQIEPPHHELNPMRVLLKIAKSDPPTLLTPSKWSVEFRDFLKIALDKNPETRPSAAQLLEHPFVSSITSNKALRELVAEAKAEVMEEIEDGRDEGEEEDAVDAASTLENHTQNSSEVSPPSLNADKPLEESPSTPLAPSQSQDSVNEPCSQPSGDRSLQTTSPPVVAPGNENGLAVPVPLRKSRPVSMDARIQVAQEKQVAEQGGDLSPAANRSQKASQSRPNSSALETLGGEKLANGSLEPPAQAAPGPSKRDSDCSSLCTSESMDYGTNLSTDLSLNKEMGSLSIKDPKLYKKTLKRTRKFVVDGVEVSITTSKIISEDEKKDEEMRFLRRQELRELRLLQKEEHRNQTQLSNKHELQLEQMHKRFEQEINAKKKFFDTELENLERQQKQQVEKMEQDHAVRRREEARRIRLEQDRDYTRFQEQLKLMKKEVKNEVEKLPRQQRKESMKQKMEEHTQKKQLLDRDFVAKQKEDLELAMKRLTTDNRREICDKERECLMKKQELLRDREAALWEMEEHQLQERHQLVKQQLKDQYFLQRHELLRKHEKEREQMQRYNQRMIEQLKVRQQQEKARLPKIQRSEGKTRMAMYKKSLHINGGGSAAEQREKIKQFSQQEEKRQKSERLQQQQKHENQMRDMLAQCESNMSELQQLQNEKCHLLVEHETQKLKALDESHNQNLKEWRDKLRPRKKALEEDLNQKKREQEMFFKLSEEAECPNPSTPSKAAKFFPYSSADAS

MAPK11 = MAPK11 (Homo sapiens, UniProt Q15759); settings: read-out: Percent Control
IKBKE = IKBKE (Homo sapiens, UniProt Q14164); settings: read-out: Percent Control
EPHA2 = EPHA2 (Homo sapiens, UniProt P29317); settings: read-out: Percent Control
CDK4 = CDK4 (Homo sapiens, UniProt P11802); settings: read-out: Percent Control
Chain of CDK4 (P11802 whole entry): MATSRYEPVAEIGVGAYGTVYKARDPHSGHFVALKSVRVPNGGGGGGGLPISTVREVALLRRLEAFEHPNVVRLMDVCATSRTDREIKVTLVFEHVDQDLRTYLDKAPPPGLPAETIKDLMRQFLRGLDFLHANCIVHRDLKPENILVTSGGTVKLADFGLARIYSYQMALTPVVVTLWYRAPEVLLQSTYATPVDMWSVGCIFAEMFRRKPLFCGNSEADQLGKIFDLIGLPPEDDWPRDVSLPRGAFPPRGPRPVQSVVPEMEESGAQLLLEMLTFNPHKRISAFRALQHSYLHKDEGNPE

ROCK2 = ROCK2 (Homo sapiens, UniProt O75116); settings: read-out: Percent Control
Chain of ROCK2 (O75116 whole entry): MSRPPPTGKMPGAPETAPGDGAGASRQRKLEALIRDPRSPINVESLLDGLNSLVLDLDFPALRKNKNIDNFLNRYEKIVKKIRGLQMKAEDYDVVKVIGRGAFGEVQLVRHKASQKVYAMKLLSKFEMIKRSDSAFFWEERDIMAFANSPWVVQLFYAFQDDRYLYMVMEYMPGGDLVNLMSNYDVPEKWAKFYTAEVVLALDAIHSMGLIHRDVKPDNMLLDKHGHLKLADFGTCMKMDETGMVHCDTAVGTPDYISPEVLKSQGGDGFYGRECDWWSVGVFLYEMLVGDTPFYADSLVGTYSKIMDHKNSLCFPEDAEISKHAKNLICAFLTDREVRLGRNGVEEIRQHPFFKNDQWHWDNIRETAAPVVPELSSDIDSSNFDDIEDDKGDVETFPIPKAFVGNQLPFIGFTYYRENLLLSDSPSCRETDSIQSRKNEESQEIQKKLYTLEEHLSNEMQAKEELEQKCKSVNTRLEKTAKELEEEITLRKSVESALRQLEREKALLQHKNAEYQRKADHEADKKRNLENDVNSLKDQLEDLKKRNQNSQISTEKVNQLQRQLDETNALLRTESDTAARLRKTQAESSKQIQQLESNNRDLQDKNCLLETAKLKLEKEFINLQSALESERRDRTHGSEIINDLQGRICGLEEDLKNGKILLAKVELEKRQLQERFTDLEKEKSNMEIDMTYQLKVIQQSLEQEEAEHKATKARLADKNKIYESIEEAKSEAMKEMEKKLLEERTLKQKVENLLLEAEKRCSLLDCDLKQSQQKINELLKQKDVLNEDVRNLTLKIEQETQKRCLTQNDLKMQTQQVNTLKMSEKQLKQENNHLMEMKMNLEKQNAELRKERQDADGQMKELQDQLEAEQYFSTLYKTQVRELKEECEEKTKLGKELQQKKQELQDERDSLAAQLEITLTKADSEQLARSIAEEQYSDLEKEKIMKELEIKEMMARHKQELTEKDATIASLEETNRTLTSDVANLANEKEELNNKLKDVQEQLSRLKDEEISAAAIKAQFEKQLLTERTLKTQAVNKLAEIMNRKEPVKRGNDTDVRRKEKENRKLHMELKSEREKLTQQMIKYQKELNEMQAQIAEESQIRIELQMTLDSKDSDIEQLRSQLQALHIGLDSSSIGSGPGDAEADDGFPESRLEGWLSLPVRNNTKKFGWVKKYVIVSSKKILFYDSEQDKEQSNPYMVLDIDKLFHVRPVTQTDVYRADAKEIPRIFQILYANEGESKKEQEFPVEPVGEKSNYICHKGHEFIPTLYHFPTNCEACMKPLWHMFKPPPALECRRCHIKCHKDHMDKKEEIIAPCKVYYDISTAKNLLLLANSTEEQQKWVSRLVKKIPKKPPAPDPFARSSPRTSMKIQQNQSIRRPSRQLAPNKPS

TAOK1 = TAOK1 (Homo sapiens, UniProt Q7L7X3)
Chain of TAOK1 (Q7L7X3 whole entry): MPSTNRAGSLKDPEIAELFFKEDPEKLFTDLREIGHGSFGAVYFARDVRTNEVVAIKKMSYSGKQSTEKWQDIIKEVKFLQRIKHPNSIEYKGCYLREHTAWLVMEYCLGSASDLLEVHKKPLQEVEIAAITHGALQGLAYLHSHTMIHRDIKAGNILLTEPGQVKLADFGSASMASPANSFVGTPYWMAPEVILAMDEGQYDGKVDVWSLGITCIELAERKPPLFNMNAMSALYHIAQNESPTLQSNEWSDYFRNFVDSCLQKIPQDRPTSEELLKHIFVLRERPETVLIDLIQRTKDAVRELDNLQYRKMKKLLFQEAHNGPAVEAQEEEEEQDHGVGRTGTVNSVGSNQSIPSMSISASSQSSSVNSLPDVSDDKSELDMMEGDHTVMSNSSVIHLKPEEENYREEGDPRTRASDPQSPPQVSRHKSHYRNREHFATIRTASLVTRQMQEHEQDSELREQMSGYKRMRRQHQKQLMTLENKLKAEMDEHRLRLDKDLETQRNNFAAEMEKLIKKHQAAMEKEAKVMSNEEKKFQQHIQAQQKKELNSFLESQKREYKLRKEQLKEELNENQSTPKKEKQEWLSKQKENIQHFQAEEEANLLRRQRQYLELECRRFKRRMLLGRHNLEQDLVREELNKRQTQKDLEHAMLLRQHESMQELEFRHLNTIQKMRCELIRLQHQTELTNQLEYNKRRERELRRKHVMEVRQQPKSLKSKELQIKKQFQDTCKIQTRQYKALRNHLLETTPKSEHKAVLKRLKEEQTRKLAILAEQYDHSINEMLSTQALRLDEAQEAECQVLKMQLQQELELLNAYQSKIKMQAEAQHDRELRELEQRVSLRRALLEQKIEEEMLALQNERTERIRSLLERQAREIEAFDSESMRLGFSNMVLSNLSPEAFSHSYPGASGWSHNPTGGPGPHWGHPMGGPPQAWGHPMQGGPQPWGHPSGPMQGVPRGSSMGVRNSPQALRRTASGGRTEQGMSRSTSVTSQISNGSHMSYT
In short: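 RT-qPCR read-out of DNA-tagged kinase captured on immobilised ligand; less captured kinase means the compound displaced the kinase-ligand interaction. Compound was tested as an 11-point, 3-fold dilution series made in DMSO at 100× and brought to 1× final.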

FLT3 = FLT3 (Homo sapiens, UniProt P36888); settings: read-out: Percent Control
WEE2 = WEE2 (Homo sapiens, UniProt P0C1S8); settings: read-out: Percent Control
LIMK2 = LIMK2 (Homo sapiens, UniProt P53671); settings: read-out: Percent Control
RIOK1 = RIOK1 (Homo sapiens, UniProt Q9BRS2); settings: read-out: Percent Control
MAPK13 = MAPK13 (Homo sapiens, UniProt O15264); settings: read-out: Percent Control
TGFBR1 = TGFBR1 (Homo sapiens, UniProt P36897); settings: read-out: Percent Control
MAP3K9 = MAP3K9 (Homo sapiens, UniProt P80192); settings: read-out: Percent Control
TLK2 = TLK2 (Homo sapiens, UniProt Q86UE8); settings: read-out: Percent Control

Chain of DAPK1 (P53355 whole entry): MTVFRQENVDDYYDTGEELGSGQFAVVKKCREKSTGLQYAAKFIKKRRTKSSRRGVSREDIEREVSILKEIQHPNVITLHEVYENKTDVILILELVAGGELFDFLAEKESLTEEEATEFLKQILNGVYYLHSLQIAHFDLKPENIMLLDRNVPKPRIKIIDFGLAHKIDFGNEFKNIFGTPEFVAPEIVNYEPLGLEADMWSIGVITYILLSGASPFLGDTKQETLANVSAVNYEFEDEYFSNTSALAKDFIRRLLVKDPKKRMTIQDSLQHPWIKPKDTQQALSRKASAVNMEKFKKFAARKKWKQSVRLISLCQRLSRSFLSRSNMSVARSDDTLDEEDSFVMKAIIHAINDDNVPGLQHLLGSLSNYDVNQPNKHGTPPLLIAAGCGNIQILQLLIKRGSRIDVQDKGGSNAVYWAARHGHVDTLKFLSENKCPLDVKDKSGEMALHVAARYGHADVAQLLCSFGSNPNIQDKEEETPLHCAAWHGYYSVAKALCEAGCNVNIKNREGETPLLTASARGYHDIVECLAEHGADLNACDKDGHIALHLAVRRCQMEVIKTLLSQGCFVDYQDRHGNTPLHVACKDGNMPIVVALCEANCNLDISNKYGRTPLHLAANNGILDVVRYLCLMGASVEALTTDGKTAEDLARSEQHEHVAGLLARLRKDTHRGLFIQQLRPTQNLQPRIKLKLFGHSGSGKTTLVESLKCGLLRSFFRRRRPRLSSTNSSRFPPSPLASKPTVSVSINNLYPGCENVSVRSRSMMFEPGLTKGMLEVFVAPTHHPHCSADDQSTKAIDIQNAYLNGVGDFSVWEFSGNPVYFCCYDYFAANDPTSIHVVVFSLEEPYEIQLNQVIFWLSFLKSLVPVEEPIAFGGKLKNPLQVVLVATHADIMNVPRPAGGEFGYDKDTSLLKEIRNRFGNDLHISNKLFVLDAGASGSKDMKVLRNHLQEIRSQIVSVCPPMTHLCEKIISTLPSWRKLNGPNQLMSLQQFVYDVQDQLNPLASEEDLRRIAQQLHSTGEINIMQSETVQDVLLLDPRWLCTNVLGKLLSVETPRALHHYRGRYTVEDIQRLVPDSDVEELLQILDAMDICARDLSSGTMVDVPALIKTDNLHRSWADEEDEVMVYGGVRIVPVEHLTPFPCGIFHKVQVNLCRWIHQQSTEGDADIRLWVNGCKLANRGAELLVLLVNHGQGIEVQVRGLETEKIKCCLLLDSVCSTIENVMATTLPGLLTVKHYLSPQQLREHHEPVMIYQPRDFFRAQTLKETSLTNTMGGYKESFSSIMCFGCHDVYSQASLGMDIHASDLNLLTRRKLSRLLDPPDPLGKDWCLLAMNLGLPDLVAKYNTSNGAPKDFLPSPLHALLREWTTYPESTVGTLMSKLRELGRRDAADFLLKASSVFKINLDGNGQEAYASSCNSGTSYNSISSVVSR

Oc1ccc(C2=Cc3ccc(O)cc3OC2)cc1 [compound 1, idronoxil]
remaining binding at 10 µM (BLK): 57%
remaining binding at 10 µM (CDK2): 92%
remaining binding at 10 µM (DAPK1): 53%
remaining binding at 10 µM (NEK9): 100%
remaining binding at 10 µM (DYRK1A): 34%
remaining binding at 10 µM (STK10): 100%
remaining binding at 10 µM (MAPK11): 85%
remaining binding at 10 µM (IKBKE): 65%
remaining binding at 10 µM (EPHA2): 78%
remaining binding at 10 µM (CDK4): 100%
remaining binding at 10 µM (ROCK2): 82%
Kd (TAOK1): 4.7 µM
remaining binding at 10 µM (TAOK1; read-out: Percent Control): 16%
remaining binding at 10 µM (FLT3): 80%
remaining binding at 10 µM (WEE2): 95%
remaining binding at 10 µM (LIMK2): 90%
remaining binding at 10 µM (RIOK1): 98%
remaining binding at 10 µM (MAPK13): 100%
remaining binding at 10 µM (TGFBR1): 78%
remaining binding at 10 µM (MAP3K9): 82%
remaining binding at 10 µM (TLK2): 86%

From paper PMC10507085, “Pharmacological inhibition of TBK1/IKKε blunts immunopathology in a murine model of SARS-CoV-2 infection” (Nature Communications, 2023)
